We go through two molecules from patent publication US7348437B2, “Proteomic analysis” (The Scripps Research Institute, priority 2004, dated 2008).

For series [1], the target named is T1, leucine aminopeptidase (LAP) (Mus musculus, UniProt Q9CPY7).
T1 sequence (Q9CPY7 1-519): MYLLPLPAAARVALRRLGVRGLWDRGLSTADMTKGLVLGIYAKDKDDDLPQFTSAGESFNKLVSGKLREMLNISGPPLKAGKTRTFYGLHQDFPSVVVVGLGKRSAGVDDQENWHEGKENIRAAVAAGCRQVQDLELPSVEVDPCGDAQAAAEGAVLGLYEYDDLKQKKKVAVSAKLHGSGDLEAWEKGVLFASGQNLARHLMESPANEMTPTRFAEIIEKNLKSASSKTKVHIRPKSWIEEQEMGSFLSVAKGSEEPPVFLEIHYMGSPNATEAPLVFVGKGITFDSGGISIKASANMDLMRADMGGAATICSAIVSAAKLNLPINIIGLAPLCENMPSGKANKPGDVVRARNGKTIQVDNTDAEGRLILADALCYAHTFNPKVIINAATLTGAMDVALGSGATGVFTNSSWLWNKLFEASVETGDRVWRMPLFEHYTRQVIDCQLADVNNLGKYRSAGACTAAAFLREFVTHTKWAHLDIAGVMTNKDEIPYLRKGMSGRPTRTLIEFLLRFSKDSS
Briefly: Inhibition of HxBP—Rh labeling of leucine aminopeptidase in mouse kidney soluble proteome.
Procedure: (§1) For labeling and detection of MPs using HxBP—Rh, the following technique can be used. […] Kidney and cancer cell proteomes, prepared as known to those having ordinary skill in the art, can be adjusted to 1 mg/ml in 50 mM Tris-HCl buffer (pH 8.0) prior to labeling. […] Labeled samples can be separated by SDS-PAGE, and visualized in-gel with a Hitachi FMBio IIe flatbed scanner (Mirabio). Integrated band intensities can be calculated from several independent labeling reactions, and averaged to provide the level of each enzyme activity in each sample.
(§2) For measuring the IC50 values for MP inhibitors using HxBP—Rh, the following technique can be used. IC50 values for neprilysin, dipeptidylpeptidase III (DPPIII), and leucine aminopeptidase (LAP) can be determined using Prism Software (Graph Pad) from dose-response curves of three trials at concentrations of GM6001 ranging from 0.001-20 μM and 50 nM HxBP—Rh probe. Neprilysin, DPPIII, and LAP assays can be conducted using MUM-2B membrane, MCF7 soluble, and mouse kidney soluble proteomes, respectively.
(§3) Right panels show the concentration-dependence of inhibition of HxBP—Rh labeling of by GM6001 (each data point corresponds to the average of three independent trials and is presented as a percentage of control reactions conducted without GM6001).

In series [2] the target is T2, dipeptidylpeptidase III (DPPIII) (Homo sapiens, UniProt Q9NY33).
T2 sequence (Q9NY33 1-737): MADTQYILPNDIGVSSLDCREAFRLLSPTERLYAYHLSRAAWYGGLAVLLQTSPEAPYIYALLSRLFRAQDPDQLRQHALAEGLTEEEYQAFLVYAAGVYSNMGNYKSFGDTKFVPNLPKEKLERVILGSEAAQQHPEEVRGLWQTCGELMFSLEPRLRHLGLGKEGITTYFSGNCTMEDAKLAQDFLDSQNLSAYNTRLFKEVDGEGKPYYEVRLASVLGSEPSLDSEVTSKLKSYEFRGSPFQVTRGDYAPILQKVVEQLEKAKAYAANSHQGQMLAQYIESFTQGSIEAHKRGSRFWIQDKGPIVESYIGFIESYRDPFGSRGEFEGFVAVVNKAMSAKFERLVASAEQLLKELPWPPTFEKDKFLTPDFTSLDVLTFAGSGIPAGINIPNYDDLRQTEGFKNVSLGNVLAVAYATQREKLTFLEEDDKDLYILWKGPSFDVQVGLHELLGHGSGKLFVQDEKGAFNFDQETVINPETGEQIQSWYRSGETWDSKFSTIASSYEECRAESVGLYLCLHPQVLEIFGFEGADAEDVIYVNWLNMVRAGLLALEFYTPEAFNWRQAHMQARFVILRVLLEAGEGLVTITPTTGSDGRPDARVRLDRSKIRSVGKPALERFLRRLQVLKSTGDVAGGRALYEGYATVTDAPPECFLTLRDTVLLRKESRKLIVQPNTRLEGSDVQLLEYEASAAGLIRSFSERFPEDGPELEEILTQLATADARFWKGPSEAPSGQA
Put plainly: Inhibition of HxBP—Rh labeling of dipeptidylpeptidase III in MCF7 soluble proteome.
Procedure: For labeling and detection of MPs using HxBP—Rh, the following technique can be used. […] Kidney and cancer cell proteomes, prepared as known to those having ordinary skill in the art, can be adjusted to 1 mg/ml in 50 mM Tris-HCl buffer (pH 8.0) prior to labeling. A portion of each cancer cell line proteome sample can be treated with PNGaseF (New England Biolabs) to provide deglycosylated proteomes, as known to those having ordinary skill in the art. Labeled samples can be separated by SDS-PAGE, and visualized in-gel with a Hitachi FMBio IIe flatbed scanner (Mirabio). Integrated band intensities can be calculated from several independent labeling reactions, and averaged to provide the level of each enzyme activity in each sample.
as §2
Shown is a representative HxBP—Rh labeling (100 nM) profile of the soluble proteome from MCF-7 cells. […]

Another series deals with T3, MMP-2 (Homo sapiens, UniProt P08253).
T3 sequence (P08253 110-660): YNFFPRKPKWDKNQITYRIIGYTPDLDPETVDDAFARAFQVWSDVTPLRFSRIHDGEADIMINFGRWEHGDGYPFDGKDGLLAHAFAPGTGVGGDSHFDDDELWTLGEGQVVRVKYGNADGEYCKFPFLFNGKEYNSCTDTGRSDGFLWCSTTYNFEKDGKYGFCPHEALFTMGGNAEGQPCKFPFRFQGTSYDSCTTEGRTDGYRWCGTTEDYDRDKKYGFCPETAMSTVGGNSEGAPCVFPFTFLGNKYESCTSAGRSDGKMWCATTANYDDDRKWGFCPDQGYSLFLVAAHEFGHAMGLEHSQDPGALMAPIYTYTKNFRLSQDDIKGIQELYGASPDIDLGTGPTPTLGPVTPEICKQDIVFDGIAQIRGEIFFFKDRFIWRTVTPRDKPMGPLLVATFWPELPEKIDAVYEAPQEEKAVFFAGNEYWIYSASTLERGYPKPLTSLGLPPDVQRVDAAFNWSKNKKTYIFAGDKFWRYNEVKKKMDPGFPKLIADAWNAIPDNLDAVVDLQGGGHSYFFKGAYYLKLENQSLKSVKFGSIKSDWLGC
Briefly: Activity-based labeling of purified MMP-2 added to mouse kidney proteome. Conditions: GM6001 5 μM or TIMP-1 200 ng, HxBP—Rh 100 nM.

The target of the next series is neprilysin (Homo sapiens, UniProt P08473). Put plainly: Inhibition of HxBP—Rh labeling of neprilysin in MUM-2B membrane proteome (competitive activity-based profiling, in-gel fluorescence). Conditions: 50 nM HxBP—Rh probe, three trials, 95% confidence limits 12-23 nM. The series is classed as binding.
Sequence of neprilysin (P08473 whole entry): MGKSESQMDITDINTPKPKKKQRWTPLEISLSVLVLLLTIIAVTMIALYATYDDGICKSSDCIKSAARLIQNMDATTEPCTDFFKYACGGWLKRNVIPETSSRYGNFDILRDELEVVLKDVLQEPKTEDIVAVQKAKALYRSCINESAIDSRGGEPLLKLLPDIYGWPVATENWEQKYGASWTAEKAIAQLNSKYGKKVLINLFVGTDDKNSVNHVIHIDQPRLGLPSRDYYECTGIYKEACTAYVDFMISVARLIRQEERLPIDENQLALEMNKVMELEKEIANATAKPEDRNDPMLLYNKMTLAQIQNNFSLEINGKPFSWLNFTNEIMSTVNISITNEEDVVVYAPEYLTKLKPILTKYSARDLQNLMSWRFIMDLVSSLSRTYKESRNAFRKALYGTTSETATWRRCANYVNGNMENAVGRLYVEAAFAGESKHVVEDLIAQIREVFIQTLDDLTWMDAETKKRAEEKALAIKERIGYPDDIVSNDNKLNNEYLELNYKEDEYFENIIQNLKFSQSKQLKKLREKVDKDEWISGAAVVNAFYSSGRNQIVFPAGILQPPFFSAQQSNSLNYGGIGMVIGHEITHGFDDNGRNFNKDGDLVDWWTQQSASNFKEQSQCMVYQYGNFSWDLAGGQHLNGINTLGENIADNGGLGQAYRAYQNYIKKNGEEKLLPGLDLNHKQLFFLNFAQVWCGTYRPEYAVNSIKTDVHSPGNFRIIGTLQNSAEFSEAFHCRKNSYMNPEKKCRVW

Procedure for MMP-2: For labeling and detection of MPs using HxBP—Rh, the following technique can be used. Purified MMP-2 can be diluted in buffer 1 (30 ng of enzyme) and mixed with 100 nM HxBP—Rh in the presence or absence of 5 μM GM6001 or TIMP-1 (80 ng). These mixtures can be pre-incubated on ice for 15 min prior to irradiation at 365 nm for 1 hour (on ice) followed by quenching with one volume of standard 2× SDS/PAGE loading buffer (reducing). Kidney and cancer cell proteomes, prepared as known to those having ordinary skill in the art, can be adjusted to 1 mg/ml in 50 mM Tris-HCl buffer (pH 8.0) prior to labeling. […] Labeled samples can be separated by SDS-PAGE, and visualized in-gel with a Hitachi FMBio IIe flatbed scanner (Mirabio). Integrated band intensities can be calculated from several independent labeling reactions, and averaged to provide the level of each enzyme activity in each sample.
With the reference to FIG. 3A, purified MMP-2 (100 ng) or pro-MMP-2 (100 ng) were added to a mouse kidney proteome (15 μL, 1 μg protein/μL) and treated with HxBP—Rh (100 nM) for 15 min prior to photocrosslinking and analysis by SDS-PAGE and in-gel fluorescence scanning.
FIG. 3B illustrates HxBP—Rh labeling of a serial dilution of purified MMP-2 added to a mouse kidney proteome.
Procedure for neprilysin: as §1, §2, §3

As for `CNC(=O)[C@H](Cc1c[nH]c2ccccc12)NC(=O)[C@@H](CC(=O)NO)CC(C)C` [GM6001], the IC50 (commonly the concentration that inhibits the measured activity by half) is 111 nM in series [1], 76 nM in series [2] and 17 nM at neprilysin. The “Effect on HxBP—Rh labeling of ~80 kDa protein (DPPIII)” value in series [2] (GM6001 5 μM, HxBP—Rh 100 nM, soluble proteome from MCF-7 cells) is on record as “blocked”. Further, the “Effect on HxBP—Rh labeling of MMP-2 in whole proteome” value on MMP-2 is given as “blocked”.
Turning to “TIMP-1: inhibitor of MMP-2 used to block probe labeling”, the “Effect on HxBP—Rh labeling of MMP-2 in whole proteome” value with MMP-2 was “blocked”.
